The values below come from paper PMC4788259 (PLoS Neglected Tropical Diseases, 2016).

“And” between values parts separate entries of the source, which are not always exact repeats. Identical values can stand only once. Like-named read-outs stand apart in the source and are kept apart here.

Series [1] relates to E. multilocularis metacestodes. Put plainly: Intraperitoneal treatment of secondary infected mice. The series is classed as in vivo, BALB/c mice. As to conditions: 4 weeks, MMV665807 100 mg/kg i.p. three times per week, ABZ 200 mg/kg p.o. 5 days per week. The method, then: (§1) Animals were kept at a temperature-controlled 12/12 hours light cycle with food and water ad libitum and according to the Swiss Animal protection law. For the in vivo treatment of MMV665807, BALB/c mice (from Charles River, Sulzfeld, Germany), at the age of 8 weeks with an average body weight of 20 g, were i.p. infected with 200 μL metacestodes vesicle suspension. This material was prepared from in vitro-cultured metacestodes (strain H95), which were disintegrated by pressing the parasites through a 1 mL pipette tip. Parasite tissue was centrifuged at 500 x g for 5 min at room temperature before being mixed 1:1 in PBS.
I.p. drug treatments were initiated 2 weeks post-infection. 32 infected mice were randomly separated into 4 groups with 2 times 4 animals per cage. All animals were exposed to 4 weeks of treatment, with five consecutive days of drug application followed by a 2 day recovery period without treatment. Treatment groups were defined as follows: group 1 (control) received 50 μL of corn oil by gavage on 5 days per week, and an i.p. injection of DMSO in corn oil (4 μL DMSO and 46 μL corn oil) on three days per week; group 2 also received corn oil by gavage 5 days per week, and an i.p. injection of MMV665807 (100 mg/kg in 4 μL DMSO plus 46 μL corn oil) three times per week; group 3 was treated with the standard albendazole treatment (albendazole in corn oil, 200 mg/kg/ day for 5 days each week) and also received an i.p. injection of 4 μl DMSO suspended in 46 μl corn oil three times per week; group 4 received a combined treatment consisting of albendazole in corn oil by gavage (200 mg/kg/day 5 days per week) and an i.p. injection of MMV665807 (100 mg/kg three times per week). After 4 weeks of treatment, mice were euthanized and the parasite mass resected and measured as described above. Statistical analyses were performed as described above.

The test system of series [2] is E. multilocularis metacestodes. In words: Peroral treatment of secondary infected mice. As to conditions: p.o. gavage 5 days per week, 4 weeks, MMV665807 100 mg/kg, ABZ 200 mg/kg. Type of series: in vivo, BALB/c mice. The method, then: as §1
Peroral (p.o.) drug treatments by gavage were initiated 6 weeks post-infection and performed as follows: group 1 received no treatment at all; group 2 received 100 μL corn oil containing 7.8 μL DMSO; group 3 mice were treated with 100 μL corn oil containing albendazole (ABZ) in 7.8 μL DMSO, in order to obtain a dosage of 200 mg/kg body weight (positive control); group 4 was treated with 100 μL corn oil containing MMV665807 in 7.8 μL DMSO, resulting in 100 mg/kg body weight. All mice were treated for a total time period of 4 weeks, with consecutive treatment during 5 days per week, and interruption of treatment for 2 days each week. At the end of the treatment, all mice were sedated by isoflurane and subsequently euthanized by CO2. All parasite tissue was resected, placed into a petri dish, and the parasite mass was weighed. Statistical analysis of the in vivo experiments was performed in R version 3.0.1. The data distribution was checked by Shapiro-Wilk test and eventual differences between treatment groups identified by the non-parametric Kruskal-Wallis test. P values were calculated by the non-parametric Wilcoxon […] test with Bonferroni-adjustment. Boxplot visualizations of the data were prepared in Microsoft Excel 2010.

Series [3] relates to newly transformed schistosomula. Also on record: method as in PMID 24416463. The conditions noted are these: in vitro; read-out: IC50 against newly transformed schistosomula; cited from earlier work.
In series [4] the test system is E. multilocularis germinal layer cells. Put plainly: CellTiter-Glo viability assay on germinal layer cell cultures. The series is classed as cell-based. As to conditions: Echinococcus multilocularis, 120 h, 5 days, read-out: E.m. GL cells (IC50). The method, then: To assess the effects of MMV665807 on the viability of parasite cells, germinal layer cells were extracted according to Spiliotis et al. After overnight aggregate formation, 15 units of cells were distributed to a black 384 well plate (Nunc, Thermo Scientific, Reinach, Switzerland) in 12.5 μL medium. A concentration series (final concentrations of 3, 1, 0.3, 0.1, 0.03, 0.01 μM) of MMV665807, MMV665794 and mefloquine were prepared in medium and added 1:2 to the cells. For mefloquine, the concentration range was adjusted in a subsequent setup up to 100 μM. As negative control, DMSO was added accordingly. After 5 days of culture at 37°C under humid nitrogen atmosphere, 25 μL CellTiter-Glo (Promega, Dübendorf, Switzerland) including 1% TritonX-100 was added. Plates were incubated for 15 minutes on a shaker at room temperature and complete disruption of all cell aggregates was checked for before measurement of luminescence on a 2300 Enspire multilabel reader (Perkin-Elmer). Mean values and standard deviations were calculated and DMSO values set to 100% viability. The IC50 value was calculated in Microsoft Excel 2010 after logit-log transformation and averages as well as standard deviations of four independent setups were calculated.

For series [5], the system named is human foreskin fibroblasts (HFF). Put plainly: alamarBlue viability assay on HFF. The conditions noted are these: Fibroblast, 120 h, 5 days. Type of series: cell-based. As for the experimental part: (§2) For testing growth inhibitory effects on confluent host cells, cells were seeded in 96-well plates (10,000 cells per well for HFF and 50,000 cells per well for RH cells), in DMEM containing FBS (10%) and antibiotics (100 U penicillin, 100 μg streptomycin and 0.25 μg amphotericin B per mL medium) and were cultured overnight at 37°C, 5% CO2. Thereafter the drugs (10 μM) were added and diluted in a serial 1:2 dilutions down to 20 nM. The concentration range was further adjusted in subsequent setups. For testing growth inhibitory effects on proliferating cells, cells were seeded at 1,000 (HFF) and 5,000 (RH) cells per well, and were allowed to attach for 5 hours at 37°C before addition of the drugs. After 5 days of culture, cell viability was assessed by alamarBlue assay.

The subject of series [6] is E. multilocularis metacestodes. In words: PGI assay: phosphoglucose isomerase release from damaged metacestodes. Type of series: cell-based, Echinococcus multilocularis. The conditions noted are these: 5 days; for EC50: PGI assay, 10-0.01 μM; for activity in PGI assay at 1 μM: triplicates; for PGI (% of DB1127 at 10 uM): single wells, relative to DB1127 (10 μM). The gist of the method:
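E. multilocularis metacestode vesicles (strain H95, grown in BALB/c mice, 2–4 mm diameter) were exposed in vitro to compounds for 5 days. Damage was read as phosphoglucose isomerase released into the medium. Initial screening used 10 μM in single wells, with 0.1% DMSO as negative control. EC50 values were derived from this read-out.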

The subject of a further series is adult worms. Set-up: method as in PMID 24416463. As to conditions: in vitro; read-out: IC50 against adult worms; cited from earlier work.
The test system of series [7] is Reuber rat hepatoma (RH) cells. In words: alamarBlue viability assay on RH cells. The series is classed as cell-based. As to conditions: 120 h, 5 days. The method, then: as §2
For the next series, the system named is S. mansoni. Also on record: method as in PMID 24416463. The conditions noted are these: cited from earlier work.
For series [8], the system named is E. multilocularis metacestode vesicles. Put plainly: microbe, parasite or virus in culture. As to conditions: Echinococcus multilocularis, 288 h, read-out: mean viability.
In series [9] the test system is E. multilocularis metacestodes. As to conditions: PGI assay; cited from earlier work.

As to `CCCSc1ccc2nc(NC(=O)OC)[nH]c2c1` [ABZ, albendazole, reference compound], in series [1] (start 2 weeks post-infection), the “parasite weight compared to placebo group” value is listed as “significantly lower”. Also, the “adverse effects during treatment” value in series [1] and in series [2] was “No adverse effects” throughout. For the same molecule, the “parasite weight compared to control” value in [2] (start 6 weeks post-infection) is recorded as “significant reduction”.
Take `FC(F)(F)c1cccc(Nc2nc3ccccc3nc2Nc2cccc(C(F)(F)F)c2)c1` [MMV665794]: the IC50 was > 33.3 µM in series [3]; 5.8 ± 0.16 µM in series [4]; 21.5 ± 0.17 µM in [5] (confluent cells, read-out: Confluent HFF (IC50)); 5.9 ± 0.21 µM in series [5] (proliferating cells, read-out: Preconfluent HFF (IC50)); 1.1 µM in the series with adult worms; 0.8 ± 0.15 µM in [7] (confluent cells, read-out: Confluent RH (IC50)). Besides, the IC50 in series [7] (proliferating cells, read-out: Preconfluent RH (IC50)) was found to be 1.1 ± 0.18 µM. Also, the EC50 in [6] (Echinococcus multilocularis, 120 h) is < 5 µM; in series [6], 2.8 ± 0.53 µM.
Take `Brc1ccc(Nc2nc3ccccc3nc2Nc2ccc(Br)cc2)cc1` [MMV007224]: the IC50 in series [3] is > 33 µM; in the series on adult worms it was 0.8 µM. Besides, the “activity in PGI assay at 1 μM” value in [6] is reported as “lost its activity”.
Take `O=C(Nc1ccc(Cl)c(Cl)c1)Nc1ccc(Cl)c(Cl)c1` [MMV665852]: the IC50 is 4.7 µM in [3] and 0.8 µM in the series with adult worms. For the same molecule, the figures for the worm burden reduction in the series with S. mansoni (80 mg/kg), with S. mansoni (400 mg/kg) and in the series with S. mansoni (4x100 mg/kg) were 46%, 52.5% and 31.2%, respectively. In [6], the “activity in PGI assay at 1 μM” value is listed as “no activity at all”. Moreover, the “PGI (% of DB1127 at 10 uM)” value in series [6] is 14.8% and 14.75%.
As to `OC(c1cc(C(F)(F)F)nc2c(C(F)(F)F)cccc12)C1CCCCN1` (stereo not shown) [Mefloquine, mefloquine, reference compound], the concentration for half-maximal inhibition (IC50) in [4] is 13.8 ± 0.33 µM. In addition, in series [8], the viability at 0.1 µM was 59.7%, the viability at 0.2 µM was found to be 74.3%, the viability at 0.4 µM amounted to 67.9% and the viability at 0.8 µM was found to be 70.9%. In addition, in series [8], the viability at 1.6 µM was determined as 75%, the viability at 3.1 µM stood at 63.5%, the viability at 6.3 µM is 65.8% and the viability at 12.5 µM came to 79.4%. In series [8], the viability at 25 µM was 83.1%, the viability at 50 µM turned out to be 5.25% and the viability at 100 µM is 8.49%. The EC50 in [9] is > 30 µM.
As to `COc1ccc(N2CCN(C(CNC(=O)C3CCCCC3)c3ccc4c(c3)OCO4)CC2)cc1` (stereo not shown) [MMV019662], the “PGI (% of DB1127 at 10 uM)” value in series [6] was -7.72%.
Same read-out and setting: the same measure for `CC(C)(C)c1ccc(C(=O)Nc2c3c(nn2-c2cccc(Cl)c2)CSC3)cc1` [MMV666123]: -7.56%; for `Cc1ccc(-c2cc3c(nn2)-c2ccccc2C3=O)cc1` [MMV666021]: -22.93%.
`COc1cc2cc(C(=O)Nc3ccccc3)c(N)nc2cc1OC` [MMV006767]: the “PGI (% of DB1127 at 10 uM)” value in series [6] is listed as -7.82%.
